According to patent publication US20190390277A1, “DIAGNOSIS OF PARKINSON'S DISEASE ON THE BASIS OF DECREASED OVERALL TRANSLATION” (ÅBO AKADEMI UNIVERSITY, priority 2016, published 2019):
Entries after “also recorded” stand apart in the source; their conditions may differ.

Legend:
[1] = system: patient skin fibroblasts; experiment: Nascent protein synthesis (AHA/Alexa-488) in PD patient skin fibroblasts; assay type: cell-based, human; settings: sporadic and G2019S PD fibroblasts; 1 μM IN1 or 0.01 μM MLi-2
Procedure: Methods. For FIG. 7, we measured mRNA translation in fibroblasts cultivated from patient skin biopsies using the non-canonical labelling approach outlined in example 4 with the following modifications. Fibroblasts were passaged upon reaching 95% confluence and assayed at passage 7-9. For measurement of nascent protein synthesis, fibroblasts at 48 h post plating were depleted of methionine and incubated with AHA, followed by AHA-click conjugation of Alexa-488 as described in the methods section of example 4. Average somatic fluorescent intensities were measured. As not all fibroblast lines could be assayed simultaneously, patient lines were paired with one or more control lines of equivalent passage and assayed on the same day.

[2] = system: dopaminergic neurons; experiment: Rotenone-induced neurite atrophy of TH-positive dopaminergic neurons in midbrain cultures; assay type: cell-based, rat; settings: 24 h; for effect on rotenone induced loss of neurites in dopaminergic neurons: LRRK2-IN1 1 μM, GSK-2578215A 1 μM, MLi-2 10 or 50 nM, with rotenone
Procedure: The cultures were immunostained for Tyrosine hydroxylase to identify dopaminergic neurons. The percentage of dopaminergic, TH-positive cells that had intact neurites are shown. […] Mean data +/− standard deviation from two independent experiments are shown. Over 300 cells were scored per condition. b) A representative fluorescence micrograph showing TH immunostaining (green) dopaminergic neurons is shown. (c,d) Treatment with three structurally different LRRK2 inhibitors, LRRK2-IN1 (1 μM), GSK-2578215A (1 μM) or MLi-2 (10 or 50 nM) prevented rotenone induced loss of neurites in the dopaminergic neurons. […] Standard errors of the mean are shown. #, p<0.0001.
Methods. Rotenone treatment of cell cultures—Midbrain neurons from P0 rat were plated at a density of 200,000 cells per well. At 3 days in vitro, cells were treated with rotenone in DMSO with or without IN1, GSK-2578215A of MLi-2 at the concentrations indicated. After 24 h, cells were fixed with 4% PFA in PBS and tyrosine hydroxylase (TH) was detected by standard immunostaining methods obvious to those skilled in the art. Cells were imaged using a Zeiss AxioVert 200M microscope. To measure atrophy, the % of TH-positive neurons with intact neurites was scored.

[3] = system: hippocampal neurons; experiment: FUNCAT (AHA/Alexa-488) protein translation in hippocampal neurons; assay type: cell-based, rat; settings: for dose (as low as) at which protein synthesis was significantly increased: hippocampal neuron somas and dendrites; for level of de novo protein synthesis (fluorescence intensity): hippocampal neurons, soma and dendrites
Source text: Objective. To test whether Lrrk2 regulated ribosomal function in neurons, we measured the effect of three structurally independent inhibitors of Lrrk2 on de novo protein synthesis using non-canonical amino acid labeling. Rat hippocampal neurons were labelled using L-azido-homoalanine (AHA), a methionine analogue, followed by copper-I-catalyzed alkyne-azide cycloaddition of Alexa-488 with an alkyne moiety to visualize newly synthesized proteins, as previously de-scribed^8.
Methods. Measuring protein translation in hippocampal neurons using FUNCAT. To measure protein translation, hippocampal neurons were plated at densities of 100,000 cells per well on round coverslips (1.3 cm diameter) in 24-well plates. Protein translation was measured following 20 h after plating. Cells were washed once and incubated with methionine-free DMEM medium (Gibco, Thermo Fisher Scientific) supplemented with 2 mM glutamine. Then 1 mM L-azidohomoalanine (AHA) was added for 30 min. Cells were washed with 1 ml PBS and fixed with 4% paraformaldehyde. LRRK2 inhibitors, when used, were added in the methionine-free medium and retained throughout the AHA labelling procedure. Cells were permeabilized in block solution (0.25% Triton X100, 0.2% BSA, 5% sucrose, 10% horse serum in PBS), and washed 5 times with 1 ml of 3% BSA in PBS. In situ labeling with AHA was achieved using a click-it reaction to covalently Alexa-488, using reagents from ThermoFisher Life Technologies (catalogue #A10267). Coverslips were mounted in Mowiol containing 2.5% 1,4-Diazabicyclo[2.2.2]octane. Fluorescent images were acquired using a Leica DMRE microscope and Hamamatsu Photonics ORCA C4742-95 CCD camera and Zen software (Carl Zeiss). Mean fluorescence intensities were measured from regions of interest in the perisomal region. Dendrite measurements were taken from line intensities (10 μm lines from the soma into the dendrite).

[4] = system: PBMCs and fibroblasts; experiment: AHA labelling, biotin-alkyne enrichment and anti-biotin-HRP immunoblot of nascent proteins in PBMCs and fibroblasts; assay type: cell-based, human; settings: AHA-labelled PBMCs and fibroblasts, streptavidin bead purification
Source text: Patient samples were from the NINDS-Coriell Institute in the USA, the European Biobank in Milan and the Turku University Hospital (T.U.H.) cohort in Finland. a) A heat map showing intensity values for MS/MS-identified nascent proteins from AHA-labelled cells (fibroblasts and PBMCs). Nascent proteins were isolated following covalent linkage to alkyne-agarose beads. After tryptic digestion, the released peptides were sequenced by mass spectrometry and identified using Maxquant software. As negative controls to determine non-specific protein binding, cells were labelled with methionine instead of AHA. […] This approach yields a set of peptides that can be rapidly quantitated using a mass spectrometer using data dependant acquisition (DDA) using Selected Reaction Monitoring or Parallel Reaction Monitoring or by data independent acquisition (DIA) or using other types of mass spectrometry methods. […] It is compared to samples that were labelled with methionine instead of AHA. […]
Sepharose was washed 2× with 1 ml LiCl buffer (500 mM LiCl2, 100 mM Tris, pH 7.6, 0.1% TX100, 1 mM DTT), followed by 4×1 ml PBS washes. […] Samples were either in-gel digested with trypsin for MS/MS identification (example 1) or transferred to nitrocellulose for quantitative immunoblot detection using an anti-biotin, horse-radish peroxidase (HRP)-conjugated antibody (Cell Signalling Technology) (example 9b). […]

[5] = system: dopaminergic neurons; experiment: FUNCAT protein translation in midbrain cultures (dopaminergic neurons); assay type: cell-based; settings: TH-positive neurons, 3 days post-plating
Source text: FIG. 6 uses click chemistry to label newly synthesised proteins with AHA. […] Dopaminergic neurons are visualised by tyrosine hydroxylase (TH) staining. a) Representative images of midbrain cultures treated with increasing concentrations of Lrrk2 IN2, and stained for TH is shown. b,c) protein translation in the somas of TH-positive and TH-negative cells is shown. d) The effect of anisomycin (to inhibit translation) on mid brain culture de novo protein synthesis is shown by representative images. e) Quantitative data from d is shown. p-values are shown on the graphs above the data points to which they apply.
Methods. To measure protein translation in dopaminergic neurons, mid brain cultures were plated at densities of 500,000 cells per well on round coverslips (1.3 cm diameter) in 24-well plates. At 3 days post-plating neurons underwent FUNCAT (see example 4). Dopaminergic neurons were detected by tyrosine hydroxylase immunofluorescence. Fluorescent intensity was measured as described in example 4 (methods).

[6] = system: BHK21 cells; experiment: Protein translation by AHA labelling and click Alexa-488 in rotenone-treated BHK21 cells; assay type: cell-based; settings: rotenone 100 nM, 1 μM LRRK2-IN1
Procedure: Furthermore, LRRK2-G2019S directly impairs protein translation in a reconstituted translation system. a) LRRK2 activity is inferred using a phospho-specific antibody ([…]) that recognises the active form of LRRK2. b) Quantitative data from 6 independent repeats as shown in (a). c, d) To determine whether inhibition of LRRK2 kinase activity could recover normal protein translation in cultured cells, BHK21 cells were treated with or without rotenone (100 nM) in the presence or absence of the indicated concentration of LRRK2-IN1. Protein translation was measured using non-canonical amino acid labelling with AHA followed by copper-catalysed click addition of alkyne-Alexa-488. Representative fluorescent micrographs (c) and quantitative data (d) are shown. […] Standard errors of the mean are plotted. #, p<0.0001.
To determine whether inhibition of LRRK2 activity could recover normal translation in BHK21 cells following rotenone treatment, BHK21 cells with or without prior treatment (30 min) with LRRK2 inhibitor (1 or 10 μM of IN1) were treated with rotenone or carrier (control) as indicated. Translation was visualized following AHA labeling and immunofluorescence quantified as earlier.

[7] = target: Lrrk2 (Homo sapiens, UniProt Q5S007); settings: blocks Lrrk2; read-out: biochemical IC50; cited from earlier work
[8] = system: hippocampal neurons; experiment: S35-methionine metabolic labelling of de novo protein synthesis in hippocampal neurons; assay type: cell-based; settings: rotenone 0.01-10 μM, 2 hr
Procedure: Methods. Measurement of protein translation using various S35-methioine-labelling—In order to model PD in vitro, hippocampal neurons were metabolically labelled with S35-methionine. Hippocampal neurons in 24 well plates were transferred to Met/Cys-free medium (Invitrogen, Gibco). Cells were treated with for 30 min 37 C, 5% CO2. 50 μl per well of labeling medium (100 μCi Met-S35/ml) was added and cells grown at 37°, 5% CO2 for 2 hr in the presence or absence of rotenone (0.01-10 μM). Cells were washed and lysed in 75 μl Laemmli lysis buffer. Samples were separated by SDS PAGE, incubated with EN3HANCE (NEN), gels dried and exposed to auto-radiographic film with intensifying screen to determine relative levels of de novo protein synthesis.

[9] = target: T1, Lrrk2 (Mesocricetus auratus, UniProt A0A1U7Q7Z2); experiment: LRRK2 activity by phospho-S935-LRRK2 immunoblot in BHK21 cells; assay type: cell-based; settings: intact BHK21 cells, rotenone 4 h
T1 construct: endogenous in cells; host or cells: BHK21 cells
Procedure: Methods. To examine the effect of rotenone treatment on LRRK2 activity, BHK21 cells were treated with or without the indicated dose of rotenone for 4 h. Cells were lysed in Laemmli buffer and proteins separated by SDS PAGE. LRRK2 activity was determined by immunoblotting with an antibody detecting phospho-S935-LRRK2. Blots were reprobed with an antibody detecting LRRK2 to establish loading variability. LRRK2 activity was quantified by densitometry of gel exposures captured using the Gel Doc XR system (Biorad).

T1 sequence (A0A1U7Q7Z2 1-2527): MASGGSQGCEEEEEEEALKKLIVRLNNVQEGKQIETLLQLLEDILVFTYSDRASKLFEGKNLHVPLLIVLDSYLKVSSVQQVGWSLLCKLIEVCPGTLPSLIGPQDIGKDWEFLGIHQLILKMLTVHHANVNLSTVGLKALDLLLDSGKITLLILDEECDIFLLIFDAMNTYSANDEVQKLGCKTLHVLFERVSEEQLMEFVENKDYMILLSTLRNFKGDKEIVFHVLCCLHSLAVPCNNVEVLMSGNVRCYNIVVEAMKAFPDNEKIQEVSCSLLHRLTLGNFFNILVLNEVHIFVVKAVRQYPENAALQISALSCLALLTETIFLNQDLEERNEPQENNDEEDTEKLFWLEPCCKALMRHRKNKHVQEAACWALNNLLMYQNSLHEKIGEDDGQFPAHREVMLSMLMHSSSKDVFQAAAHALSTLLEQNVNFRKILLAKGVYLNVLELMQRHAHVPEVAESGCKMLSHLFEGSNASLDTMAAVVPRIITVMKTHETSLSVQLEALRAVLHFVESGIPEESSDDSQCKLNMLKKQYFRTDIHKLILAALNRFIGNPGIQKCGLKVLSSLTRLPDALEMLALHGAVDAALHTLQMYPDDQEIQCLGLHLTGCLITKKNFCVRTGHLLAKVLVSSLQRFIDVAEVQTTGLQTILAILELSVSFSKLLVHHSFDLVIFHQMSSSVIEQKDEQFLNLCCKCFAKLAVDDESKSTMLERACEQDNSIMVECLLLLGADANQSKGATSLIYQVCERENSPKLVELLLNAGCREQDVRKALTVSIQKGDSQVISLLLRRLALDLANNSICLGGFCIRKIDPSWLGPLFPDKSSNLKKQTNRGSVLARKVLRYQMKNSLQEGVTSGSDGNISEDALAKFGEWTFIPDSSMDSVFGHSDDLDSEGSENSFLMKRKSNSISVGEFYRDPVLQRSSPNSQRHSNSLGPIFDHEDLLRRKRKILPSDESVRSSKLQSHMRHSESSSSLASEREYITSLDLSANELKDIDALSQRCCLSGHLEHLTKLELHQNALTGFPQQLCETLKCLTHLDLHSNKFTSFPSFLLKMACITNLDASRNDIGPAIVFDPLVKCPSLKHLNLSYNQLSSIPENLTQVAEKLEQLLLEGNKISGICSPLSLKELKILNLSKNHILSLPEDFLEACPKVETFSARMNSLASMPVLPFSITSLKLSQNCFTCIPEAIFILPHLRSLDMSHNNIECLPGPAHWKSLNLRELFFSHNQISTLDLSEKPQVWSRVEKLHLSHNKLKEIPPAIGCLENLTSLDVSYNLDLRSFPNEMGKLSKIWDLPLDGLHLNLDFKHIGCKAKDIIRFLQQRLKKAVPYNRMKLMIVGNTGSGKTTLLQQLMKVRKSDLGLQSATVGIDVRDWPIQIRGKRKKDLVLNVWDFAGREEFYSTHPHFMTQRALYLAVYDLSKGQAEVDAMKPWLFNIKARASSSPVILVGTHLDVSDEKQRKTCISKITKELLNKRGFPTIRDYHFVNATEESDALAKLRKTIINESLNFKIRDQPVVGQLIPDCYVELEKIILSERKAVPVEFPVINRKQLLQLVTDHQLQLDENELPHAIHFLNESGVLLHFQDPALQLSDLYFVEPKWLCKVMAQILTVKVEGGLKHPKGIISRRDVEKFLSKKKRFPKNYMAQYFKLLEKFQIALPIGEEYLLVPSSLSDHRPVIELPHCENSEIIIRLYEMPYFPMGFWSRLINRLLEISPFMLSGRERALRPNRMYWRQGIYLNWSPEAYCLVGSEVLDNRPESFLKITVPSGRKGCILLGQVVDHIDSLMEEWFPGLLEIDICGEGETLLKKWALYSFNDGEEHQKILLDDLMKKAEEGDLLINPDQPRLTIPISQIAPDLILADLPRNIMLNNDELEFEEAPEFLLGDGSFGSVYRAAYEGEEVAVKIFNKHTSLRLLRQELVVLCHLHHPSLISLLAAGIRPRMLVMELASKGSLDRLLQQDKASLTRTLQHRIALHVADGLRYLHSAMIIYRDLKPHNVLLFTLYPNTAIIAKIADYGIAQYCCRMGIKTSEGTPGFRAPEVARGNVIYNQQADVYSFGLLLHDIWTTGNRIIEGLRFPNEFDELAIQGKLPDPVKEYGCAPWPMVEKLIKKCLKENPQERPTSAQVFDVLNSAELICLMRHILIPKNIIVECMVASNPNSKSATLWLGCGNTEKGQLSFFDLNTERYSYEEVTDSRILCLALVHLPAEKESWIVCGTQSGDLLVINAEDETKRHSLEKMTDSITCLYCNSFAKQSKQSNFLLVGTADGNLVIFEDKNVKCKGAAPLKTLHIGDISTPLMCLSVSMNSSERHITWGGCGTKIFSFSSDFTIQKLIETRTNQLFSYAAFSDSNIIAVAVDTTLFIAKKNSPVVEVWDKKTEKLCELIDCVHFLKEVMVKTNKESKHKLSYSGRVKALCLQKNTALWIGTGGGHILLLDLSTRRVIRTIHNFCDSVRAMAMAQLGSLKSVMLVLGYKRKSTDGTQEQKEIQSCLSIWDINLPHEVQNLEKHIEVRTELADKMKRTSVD
Lrrk2 (Homo sapiens, UniProt Q5S007), sequence (Q5S007 whole entry, species assumed): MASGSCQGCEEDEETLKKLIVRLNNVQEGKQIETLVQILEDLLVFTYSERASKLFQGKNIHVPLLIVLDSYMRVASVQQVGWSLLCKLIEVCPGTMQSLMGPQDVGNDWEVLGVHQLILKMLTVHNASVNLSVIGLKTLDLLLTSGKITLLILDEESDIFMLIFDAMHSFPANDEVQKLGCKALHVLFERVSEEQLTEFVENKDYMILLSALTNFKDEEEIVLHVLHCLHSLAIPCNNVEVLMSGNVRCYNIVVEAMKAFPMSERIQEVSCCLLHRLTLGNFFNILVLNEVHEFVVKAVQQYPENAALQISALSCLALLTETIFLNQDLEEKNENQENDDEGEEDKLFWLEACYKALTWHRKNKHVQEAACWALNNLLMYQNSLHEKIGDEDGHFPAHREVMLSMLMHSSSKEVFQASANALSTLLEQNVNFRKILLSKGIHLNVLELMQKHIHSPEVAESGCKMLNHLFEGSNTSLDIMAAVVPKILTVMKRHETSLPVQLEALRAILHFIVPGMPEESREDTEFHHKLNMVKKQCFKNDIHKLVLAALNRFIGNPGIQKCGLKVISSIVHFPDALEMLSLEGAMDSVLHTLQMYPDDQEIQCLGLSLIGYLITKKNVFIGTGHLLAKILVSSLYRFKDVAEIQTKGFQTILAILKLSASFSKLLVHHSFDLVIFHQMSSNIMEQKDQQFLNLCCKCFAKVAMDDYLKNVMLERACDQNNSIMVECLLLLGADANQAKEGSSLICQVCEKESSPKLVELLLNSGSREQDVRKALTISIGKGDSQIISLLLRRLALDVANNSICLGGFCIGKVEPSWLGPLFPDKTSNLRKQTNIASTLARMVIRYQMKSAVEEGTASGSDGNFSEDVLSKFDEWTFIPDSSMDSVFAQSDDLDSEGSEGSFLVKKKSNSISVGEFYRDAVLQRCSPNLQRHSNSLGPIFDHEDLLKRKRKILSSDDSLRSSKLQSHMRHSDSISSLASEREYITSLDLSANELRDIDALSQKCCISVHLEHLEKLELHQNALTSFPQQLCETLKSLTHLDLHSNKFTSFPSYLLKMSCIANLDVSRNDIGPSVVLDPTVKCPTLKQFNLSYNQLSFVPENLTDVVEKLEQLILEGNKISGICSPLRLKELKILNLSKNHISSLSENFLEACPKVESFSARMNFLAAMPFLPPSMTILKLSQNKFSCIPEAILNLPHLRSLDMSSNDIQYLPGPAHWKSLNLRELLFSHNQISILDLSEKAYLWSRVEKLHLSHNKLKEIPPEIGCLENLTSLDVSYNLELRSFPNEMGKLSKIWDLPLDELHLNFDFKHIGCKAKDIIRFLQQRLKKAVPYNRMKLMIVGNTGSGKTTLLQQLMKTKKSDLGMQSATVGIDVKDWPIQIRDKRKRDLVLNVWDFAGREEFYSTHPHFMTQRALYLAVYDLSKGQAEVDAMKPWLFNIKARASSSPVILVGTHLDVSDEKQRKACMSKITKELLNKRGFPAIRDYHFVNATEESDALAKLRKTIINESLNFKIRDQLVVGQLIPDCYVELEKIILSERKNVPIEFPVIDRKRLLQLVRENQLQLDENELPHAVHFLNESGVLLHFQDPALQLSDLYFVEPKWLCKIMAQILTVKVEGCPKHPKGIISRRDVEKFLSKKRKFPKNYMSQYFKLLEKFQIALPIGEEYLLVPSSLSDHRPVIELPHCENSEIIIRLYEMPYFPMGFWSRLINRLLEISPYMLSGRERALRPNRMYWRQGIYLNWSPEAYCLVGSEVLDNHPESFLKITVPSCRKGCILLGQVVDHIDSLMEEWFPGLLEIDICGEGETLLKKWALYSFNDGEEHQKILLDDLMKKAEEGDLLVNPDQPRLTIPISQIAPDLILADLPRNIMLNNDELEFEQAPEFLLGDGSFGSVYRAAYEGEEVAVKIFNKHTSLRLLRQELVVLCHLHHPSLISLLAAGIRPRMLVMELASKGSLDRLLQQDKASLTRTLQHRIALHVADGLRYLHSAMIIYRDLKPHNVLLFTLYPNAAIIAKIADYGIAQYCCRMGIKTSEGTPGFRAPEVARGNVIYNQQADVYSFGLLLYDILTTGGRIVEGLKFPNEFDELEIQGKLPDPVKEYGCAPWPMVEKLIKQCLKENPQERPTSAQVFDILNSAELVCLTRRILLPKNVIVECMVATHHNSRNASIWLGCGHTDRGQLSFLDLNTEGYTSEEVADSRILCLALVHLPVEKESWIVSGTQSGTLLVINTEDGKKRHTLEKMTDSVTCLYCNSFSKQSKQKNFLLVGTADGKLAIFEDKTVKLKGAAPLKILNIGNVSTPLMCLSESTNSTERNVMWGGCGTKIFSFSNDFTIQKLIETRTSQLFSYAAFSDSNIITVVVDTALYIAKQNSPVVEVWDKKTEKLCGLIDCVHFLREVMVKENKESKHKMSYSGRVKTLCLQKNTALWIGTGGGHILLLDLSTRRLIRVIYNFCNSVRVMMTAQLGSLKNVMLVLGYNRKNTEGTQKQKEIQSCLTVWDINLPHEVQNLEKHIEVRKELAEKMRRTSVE

With 3-(4-Pyrinimidyl) Indazole [MLi-2] the “reversal of decreased protein synthesis in PD patient fibroblasts” value [1] was “reversed to a normal level”, the “effect on rotenone induced loss of neurites in dopaminergic neurons” value (“effect on rotenone induced loss” below) [2] was “prevented” and the “dose (as low as) at which protein synthesis was significantly increased” value [3] was 0.01 µM. The “level of de novo protein synthesis (fluorescence intensity)” value [3] was “increased”.

In the case of `COc1ccc(C[C@H]2NC[C@H](O)[C@H]2OC(C)=O)cc1` [Anisomycin], the “anti-biotin immunoblot signal of nascent proteins” value [4] is reported as “no signal”, the “level of de novo protein synthesis (fluorescence intensity)” value [3] is reported as “effectively inhibited” and the “protein translation (fluorescence)” value [5] is reported as “effectively reduced”.

For `O=C(Nc1cccnc1)c1cc(-c2ccnc(F)c2)ccc1OCc1ccccc1` [GSK-2578215A], the “effect on rotenone induced loss” value [2] was “prevented” and the “dose (as low as) at which protein synthesis was significantly increased” value [3] was 0.1 µM.

For `COc1cc(C(=O)N2CCC(N3CCN(C)CC3)CC2)ccc1Nc1ncc2c(n1)N(C)c1ccccc1C(=O)N2C` [LRRK2-IN1], the “reversal of decreased protein synthesis in PD patient fibroblasts” value [1] is listed as “reversed”, the “protein translation level after rotenone” value [6] is listed as “recovered to control level” and the IC50 [7] is listed as 10 nM. The “effect on rotenone induced loss” value [2] was “prevented” and the “dose (as low as) at which protein synthesis was significantly increased” value [3] was 0.1 µM.

For `C=C(C)[C@H]1Cc2c(ccc3c2O[C@@H]2COc4cc(OC)c(OC)cc4[C@@H]2C3=O)O1` [Rotenone], the “percentage of TH-positive cells with intact neurites” value ([2]; rotenone 0-100 nM) was “induced atrophy; also recorded: dose dependent loss of neurites”, the “de novo protein synthesis (S35-methionine labelling)” value [8] was “dose-dependently decreased” and the “LRRK2 activity (phospho-S935-LRRK2)” value [9] was “dose dependently increased”.
